Test results: patent US20220072101A1, “HARNESSING INFLAMMATION TO TREAT NEURODEVELOPMENTAL DISORDERS” (President and Fellows of Harvard College, priority 2019, published 2022)
Entries after “also recorded” stand apart in the source; their conditions may differ.

Legend:
IL-17a, IFNγ, IL-6, TNFα = assay: ELISA of cytokines in plasma and brain lysate; format: in vivo, mouse
Description: Mice were put under general anesthesia by intraperitoneal injection of Ketamine (100 mg/kg, i.p.) and xylazine (10 mg/kg, i.p.). Blood was collected by retro-orbital puncture, using clean heparinized microhematocrit capillary tubes (Fisher Scientific®). Once the tube was withdrawn, slight pressure was applied on the eyelid with gauze to prevent further bleeding. All blood samples were centrifuged at 15,000 g for 3 min at room temperature. For quantification of cytokines in brain lysate, samples were disrupted in cold lysis buffer with protease inhibitor cocktail for 60 seconds using the Micro-Homogenizer (VWR International) and centrifuged for 30 min at 15,000×g to remove insoluble precipitates. All samples were stored at −80° C. until further analysis. Plasma and brain lysate cytokines concentrations were measured using an ELISA kit (Biolgened™), following the manufacturer's instructions.
After four hours of vehicle or LPS administration, mice were anesthetized by intraperitoneal injection of fatal plus (100 mg/kg). All blood samples were centrifuged at 10,000 g for 10 min at 4 C. All samples were stored at −80° C. until further analysis. Cytokines concentrations in plasma were measured using an ELISA kit (IFN-γ; 430804, TNF-α; 430904, IL-6; 431304, IL-17a; 432504, Biolegend®), following the manufacturer's instructions.

BBB = BBB permeability (Evans blue); format: in vivo, mouse
Description: BBB permeability was assessed with Evans blue (Sigma Aldrich®). The Evans blue dye binds to serum albumin (69,000 Da) to become a high-molecular-weight protein tracer. Mice were injected with 100 μl of Evans blue solution (10 mg/kg in PBS) intravenously. After 30 min, all injected mice were sacrificed. Whole brains were then removed and photographed. The brain tissues were disrupted in lysis buffer at full speed for 60 seconds using a Micro-Homogenizer (VWR International®). The fluorescence was determined using a Spectrophotometer (BioTek Instruments®) with excitation at 620 nm and emission at 680 nm.

MIA offspring = assay: Marble burying assay; format: in vivo, mouse; conditions: four hours after LPS
Description: On day 1, mice were tested for their baseline marble burying phenotype. On day 2, four hours prior to beginning the marble burying assay, mice were treated with either LPS or vehicle. Marble burying assay was carried out as described previously^8. Mice were placed into testing arenas (arena size: 40 cm×20 cm×30 cm, bedding depth: 3 cm) each containing 20 glass marbles (laid out in four rows of five marbles equidistant from one another). At the end of the 15 min exploration period mice were carefully removed from the testing cages and the number of marbles buried was recorded. The marble burying index was arbitrarily defined as the following: 1 for marbles covered >50% with bedding, 0.5 for marbles covered <50% with bedding, or 0 for anything less.

S1DZ neurons = assay: In vivo electrophysiology, firing rate of S1DZ neurons in awake mice; design: species or system mouse
Description: Electrophysiological experiments were conducted in head-fixed mice trained to walk on a rotating running wheel. Prior to training, mice were implanted with custom crowns permitting head-fixing above the wheel and allowed to recover for one week before training. Mice were trained to walk on the wheel for three 10 min sessions daily for at least one week. Following training, mice were implanted with a multi-electrode array targeting the S1DZ and allowed to recover before testing. To assess IL-17a dependence of LPS-induced changes in neural activity, mice were injected i.p. with control antibodies or blocking antibody against IL-17a (1 mg/mouse), 30 min prior to i.p. vehicle or LPS injection. Baseline neural activity was measured while mice were running on the wheel immediately prior to the first injection. Following the first injection, mice were returned to their home cage. Post-injection (Test) neural activity during wheel running was measured 4 hrs after vehicle or LPS injection.
Custom multi-electrode array scaffolds (drive bodies) were designed using 3D CAD software (SolidWorks®) and printed in Accura 55 Plastic™ (American Precision Prototyping®) as described previously^31,32. […]
Firing rate was calculated across one second time windows during which animals were walking stably on the rotating wheel averaged across 25-50 trials per condition. […]

Substance: lipopolysaccharide [LPS]
- IL-17a in the brain (IL-17a, IFNγ, IL-6, TNFα; IFNγ KO MIA offspring, LPS treatment): no longer detectable
- IL-17a and IFNγ levels in the brain (IL-17a, IFNγ, IL-6, TNFα; MIA offspring injected with LPS, brain lysate): elevated levels of IL-17a, but not IFNγ, in the brain
- plasma levels of IFNγ, IL-6, TNFα and IL-17a (IL-17a, IFNγ, IL-6, TNFα; MIA offspring, LPS i.p.): increased plasma levels of inflammatory cytokines; also recorded: robust increase in plasma levels of IFNγ, IL-6, TNFα and IL-17a
- plasma/blood levels of inflammatory cytokines (IL-17a, IFNγ) (IL-17a, IFNγ, IL-6, TNFα; PBS (control) offspring, LPS 50 μg/kg i.p.): insufficient to produce high levels of inflammatory cytokines; also recorded: failed to increase IL-17a and IFNγ levels in the blood
- plasma levels of IFN-γ, IL-6, and TNF-α (IL-17a, IFNγ, IL-6, TNFα; PBS, MIA, WT and monogenic mutant mice (FIG. 23A), four hours after LPS): robust increase in plasma levels of IFN-γ, IL-6, and TNF-α
- plasma/blood IL-17a, MIA offspring vs monogenic mutant mice and controls (IL-17a, IFNγ, IL-6, TNFα; four hours after LPS): did not induce comparable amounts of interleukin-17a (IL-17a) as in MIA offspring; also recorded: prominently upregulated in MIA offspring, but not in monogenic mutant mice or in control animals; also recorded: increase in IL-17a levels in the blood selectively in MIA offspring, but not in other monogenic mutant mice
- BBB permeability (leakage of i.v. Evans Blue into the brain) (BBB; MIA offspring, LPS 3.5 hr before Evans Blue): can increase BBB permeability
- LPS-induced increase in EB leakage in knockout animals (BBB; animals genetically deficient for IFNγ or IL-17a): prevented in animals genetically deficient for IFNγ, but not IL-17a
- marble burying behavior (MIA offspring): rescued an enhanced marble burying behavior
- overall firing rate of S1DZ neurons (S1DZ neurons; MIA offspring, 4 hrs after LPS): a decrease in overall firing rate was observed
- firing rate in the S1DZ (S1DZ neurons; control (PBS) offspring): Neither LPS nor IL-17a blocking antibody treatment changed the firing rate
